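Following 48 hours of exposure in 96-well plates, responses at five concentrations were used to interpolate endpoints linearly. GI50 marks 50% less growth.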 Calls of active or inactive are those of the source. No stated cut-off is given here; in the data, active = GI50 up to about 1.1 µM and inactive = higher.
Legend:
Assay in all cases: NCI anticancer screen, dose series, 48 h
OVCAR-3 = test system: OVCAR-3
SK-MEL-5 = test system: SK-MEL-5
SF-295 = test system: SF-295
RPMI-8226 = test system: RPMI-8226
MDA-MB-231 = test system: MDA-MB-231
KM12 = test system: KM12
SF-268 = test system: SF-268
M14 = test system: M14
SK-MEL-28 = test system: SK-MEL-28
NCI-H226 = test system: NCI-H226
SNB-19 = test system: SNB-19
SR = test system: SR
MOLT-4 = test system: MOLT-4
MDA-MB-435 = test system: MDA-MB-435
TK-10 = test system: TK-10
OVCAR-8 = test system: OVCAR-8
SK-MEL-2 = test system: SK-MEL-2
COLO 205 = test system: COLO 205
HL-60 = test system: HL-60
EKVX = test system: EKVX

Measured: GI50

COC(=O)c1cc2c(o1)Sc1ccccc1NC2=O
inactive: OVCAR-3 > 100 µM | SK-MEL-5 > 100 µM | SF-295 > 100 µM | RPMI-8226 > 100 µM | MDA-MB-231 > 100 µM | KM12 > 100 µM | SF-268 31.8 µM | M14 > 100 µM | SK-MEL-28 > 100 µM | NCI-H226 > 100 µM | SNB-19 35.9 µM | SR > 100 µM | MOLT-4 > 100 µM | MDA-MB-435 > 100 µM | TK-10 > 100 µM | OVCAR-8 68.5 µM | SK-MEL-2 > 100 µM | COLO 205 > 100 µM | HL-60 > 100 µM

C[C@@H]1C(=O)C[C@H]2C(C)(C)CCC[C@]2(C)[C@@]1(O)CCc1ccoc1
inactive: OVCAR-3 > 100 µM | SK-MEL-5 > 100 µM | SF-295 > 100 µM | RPMI-8226 84.3 µM | MDA-MB-231 > 100 µM | KM12 > 100 µM | SF-268 96.4 µM | M14 > 100 µM | SK-MEL-28 > 100 µM | NCI-H226 13.4 µM | SNB-19 > 100 µM | SR 11.5 µM | MOLT-4 80.4 µM | MDA-MB-435 > 100 µM | TK-10 > 100 µM | OVCAR-8 > 100 µM | SK-MEL-2 > 100 µM | COLO 205 > 100 µM | EKVX > 100 µM | HL-60 53 µM

C=C1CC=CC(C)(C)C1C/C=C(\C)C(O)CBr (configuration not stated)
inactive: SK-MEL-5 62.8 µM | SF-295 > 100 µM | RPMI-8226 25.4 µM | MDA-MB-231 > 100 µM | KM12 77.1 µM | SF-268 > 100 µM | M14 82.6 µM | SK-MEL-28 > 100 µM | NCI-H226 37.5 µM | SNB-19 > 100 µM | SR 28 µM | MOLT-4 21.9 µM | MDA-MB-435 39.9 µM | TK-10 89.9 µM | OVCAR-8 29.4 µM | SK-MEL-2 > 100 µM | COLO 205 39 µM | EKVX > 100 µM | HL-60 32.4 µM

O=C(CCCN1CCC2(CC1)NC(=O)c1ccccc1O2)c1ccc(F)cc1
inactive: OVCAR-3 > 100 µM | SK-MEL-5 44.9 µM | SF-295 > 100 µM | RPMI-8226 76.6 µM | MDA-MB-231 > 100 µM | KM12 > 100 µM | SF-268 > 100 µM | M14 87.7 µM | SK-MEL-28 > 100 µM | NCI-H226 > 100 µM | SR 57 µM | MOLT-4 50.1 µM | MDA-MB-435 > 100 µM | TK-10 81.7 µM | OVCAR-8 > 100 µM | SK-MEL-2 > 100 µM | COLO 205 50.1 µM | EKVX > 100 µM | HL-60 85.3 µM

Reference: ChEMBL document CHEMBL1201862, “PubChem BioAssay data set” (2004)
